How the values were obtained:
Assay in all cases: radioligand saturation binding, CHO membranes
[1] = biological target: MOR-1-PK (Mus musculus, UniProt P42866)
[2] = biological target: MOR-1O-PK (Mus musculus, UniProt P42866)
[3] = biological target: MOR-1O (untagged) (Mus musculus, UniProt P42866)
[4] = biological target: MOR-TR-PK (Mus musculus, UniProt P42866, DEL387-398)
[5] = biological target: MOR-1 (untagged) (Mus musculus, UniProt P42866)

Q: Which Kd [1] does the source give for `O=C(N[C@@H]1CC[C@@]2(O)[C@H]3Cc4ccc(O)c5c4[C@@]2(CCN3CC2CC2)[C@H]1O5)c1cccc(I)c1` [[^125I]IBNtxA] here?
A: The Kd was 0.1 ± 0.01 nM.

Q: And the Kd [2]?
A: The Kd was 0.24 ± 0.11 nM.

Q: And the Kd [3]?
A: Its Kd is 0.2 ± 0.07 nM.

Q: What about the Kd [4] of the same molecule?
A: The Kd was 0.1 ± 0.02 nM.

Q: And the Kd [5]?
A: The Kd was 0.13 ± 0.03 nM.

From paper PMC8026774 (Cellular and molecular neurobiology, 2020)
